# Laboratory results reported in patent US8426604B2 (Janssen Pharmaceutica NV, priority 2010, dated 2013).
# Target: T1, ERR1 (also known as ERR-α or ERR-1) (Homo sapiens, UniProt P11474)
# T1 sequence (P11474 193-421 limits assumed): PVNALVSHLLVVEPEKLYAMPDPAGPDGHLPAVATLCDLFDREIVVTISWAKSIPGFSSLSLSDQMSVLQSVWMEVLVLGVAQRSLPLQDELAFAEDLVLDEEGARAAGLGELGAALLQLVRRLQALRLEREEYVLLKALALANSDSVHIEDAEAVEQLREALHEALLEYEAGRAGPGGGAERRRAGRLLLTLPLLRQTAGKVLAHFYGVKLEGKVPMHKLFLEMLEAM
# Assay: TR-FRET assay (disruption of co-activator peptide binding)
# Type: biochemical
# Conditions: 6His-tagged ERR1LBD, GST-hSRC2 co-activator peptide; average of 3 independent experiments
# Method: Time-Resolved Fluorescence Resonance Energy Transfer (TR-FRET) experiments were performed to examine the functional response of ERR1 (also known as ERR-α or ERR-1) ligands. The TR-FRET assay described herein relied on the conformation of ERR1 for binding to a co-activator peptide: when a test compound binds to ERR1 and alters its conformation, it can disrupt the binding of the co-activator peptide. The components of this homogeneous secondary assay included: the ^6His-tagged-ERR1LBD, a GST-labeled-hSRC2 co-activator polypeptide and a fluorescent donor/acceptor pair from CIS bio international htrf/bioassays (Bedford, Mass.) using both an α-GST Europium Cryptate (Eu) label and an α^6His-XL665 (allophycocyanin) fluorophore.
# For TR-FRET measurements, the reaction was buffered in 25 mM Tris pH 8, 2.5 mM Hepes, 20 mM KCl, 1 mM DTT, and 0.05 mg/mL BSA (-lipids). The final concentrations of reagents were 6 nM of ERR1LBD, 6 nM GST-SRC-2 peptide, 30 nM Eu cryptate, and 7.5 nM XL665. Reactions were allowed to reach equilibrium at 25° C. for 4-18 hours before collecting data on the Analyst from LJL Biosystems (Molecular Devices Sunnyvale, Calif.). As a time-resolved method, the samples were excited at […] and emission was collected for 1 ms at both 615 and 665 nm with delays of 400 and 75 μs, respectively. Dose response curves were fitted using a hyperbolic equation and the data reported is the average of 3 independent experiments.
structure (smiles),measurement,value
"COc1ccc(Cn2ncc3cc(/C=C4\SC(N(C)CC(O)CO)=NC4=O)ccc32)c(C(F)(F)F)c1 (stereo not shown) [Compound 13, 2-[(2,3-Dihydroxy-propyl)-methyl-amino]-5-[1-(4-methoxy-2-trifluoromethyl-benzyl)-1H-indazol-5-ylmethylene]-thiazol-4-one]",EC50,3.6 nM
"CN(C)C1=NC(=O)/C(=C/c2ccc3c(cnn3Cc3ccc(C(F)(F)F)cc3C(F)(F)F)c2)S1 [Compound 1, 5-[1-(2,4-Bis-trifluoromethyl-benzyl)-1H-indazol-5-ylmethylene]-2-dimethylamino-thiazol-4-one]",EC50,12 nM
"CON(C)C1=NC(=O)/C(=C/c2ccc3c(cnn3Cc3ccc(Cl)cc3C(F)(F)F)c2)S1 [Compound 21, 5-[1-(4-Chloro-2-trifluoromethyl-benzyl)-1H-indazol-5-ylmethylene]-2-(methoxy-methyl-amino)-thiazol-4-one]",EC50,24 nM
"CN(Cc1cccnc1)C1=NC(=O)/C(=C/c2ccc3c(cnn3Cc3ccc(Cl)cc3C(F)(F)F)c2)S1 [Compound 46, 5-[1-(4-Chloro-2-trifluoromethyl-benzyl)-1H-indazol-5-ylmethylene]-2-(methyl-pyridin-3-ylmethyl-amino)-thiazol-4-one]",EC50,22 nM
"CN1CCC(N(C)C2=NC(=O)/C(=C/c3ccc4c(cnn4Cc4ccc(C(F)(F)F)cc4C(F)(F)F)c3)S2)C1 (stereo not shown) [Compound 29, 5-[1-(2,4-Bis-trifluoromethyl-benzyl)-1H-indazol-5-ylmethylene]-2-[methyl-(1-methyl-pyrrolidin-3-yl)-amino]-thiazol-4-one]",EC50,67 nM
"CCOC(=O)N1CCC(N(C)C2=NC(=O)/C(=C/c3ccc4c(cnn4Cc4ccc(Cl)cc4C(F)(F)F)c3)S2)CC1 [Compound 37, 4-({5-[1-(4-Chloro-2-trifluoromethyl-benzyl)-1H-indazol-5-ylmethylene]-4-oxo-4,5-dihydro-thiazol-2-yl}-methyl-amino)-piperidine-1-carboxylic acid ethyl ester]",EC50,69 nM
"CN(C1=NC(=O)/C(=C/c2ccc3c(cnn3Cc3ccc(Cl)cc3C(F)(F)F)c2)S1)C1CNC1 [Compound 48, 2-(Azetidin-3-yl-methyl-amino)-5-[1-(4-chloro-2-trifluoromethyl-benzyl)-1H-indazol-5-ylmethylene]-thiazol-4-one]",EC50,43 nM
"COC[C@@H]1CC(N(C)C2=NC(=O)/C(=C/c3ccc4c(cnn4Cc4ccc(C(F)(F)F)cc4C(F)(F)F)c3)S2)CN1C (stereo partly shown) [Compound 44, 5-[1-(2,4-Bis-trifluoromethyl-benzyl)-1H-indazol-5-ylmethylene]-2-[(5-methoxymethyl-1-methyl-pyrrolidin-3-yl)-methyl-amino]-thiazol-4-one]",EC50,32 nM
"COCCN1CCC(CN(C)C2=NC(=O)/C(=C/c3ccc4c(cnn4Cc4ccc(Cl)cc4C(F)(F)F)c3)S2)C1 (stereo not shown) [Compound 47, 5-[1-(4-Chloro-2-trifluoromethyl-benzyl)-1H-indazol-5-ylmethylene]-2-{[1-(2-methoxy-ethyl)-pyrrolidin-3-ylmethyl]-methyl-amino}-thiazol-4-one]",EC50,17 nM
"CN(C)CCN(C)C1=NC(=O)/C(=C/c2ccc3c(cnn3Cc3ccc(S(C)(=O)=O)cc3Cl)c2)S1 [Compound 7, 5-[1-(2-Chloro-4-methanesulfonyl-benzyl)-1H-indazol-5-ylmethylene]-2-[(2-dimethylamino-ethyl)-methyl-amino]-thiazol-4-one]",EC50,830 nM
"CN(C1=NC(=O)/C(=C/c2ccc3c(cnn3Cc3ccc(Cl)cc3C(F)(F)F)c2)S1)[C@H]1CCNC[C@H]1F [Compound 54, 5-({1-[4-Chloro-2-(trifluoromethyl)benzyl]-1H-indazol-5-yl}methylidene)-2-{[(3R,4S)-3-fluoropiperidin-4-yl](methyl)amino}-1,3-thiazol-4(5H)-one]",EC50,21 nM
"O=C1N=C(N(CCO)CCO)S/C1=C\c1ccc2c(cnn2Cc2ccc(Cl)cc2C(F)(F)F)c1 [Compound 4, 2-[Bis-(2-hydroxy-ethyl)-amino]-5-[1-(4-chloro-2-trifluoromethyl-benzyl)-1H-indazol-5-ylmethylene]-thiazol-4-one]",EC50,10 nM
"CN(C[C@H](O)c1ccc(O)cc1)C1=NC(=O)/C(=C/c2ccc3c(cnn3Cc3ccc(Cl)cc3C(F)(F)F)c2)S1 [Compound 31, (R)-5-[1-(4-Chloro-2-trifluoromethyl-benzyl)-1H-indazol-5-ylmethylene]-2-{[2-hydroxy-2-(4-hydroxy-phenyl)-ethyl]-methyl-amino}-thiazol-4-one]",EC50,31 nM
"CCN(CC)CCN(C)C1=NC(=O)/C(=C/c2ccc3c(c2)c(I)nn3Cc2ccc(C(F)(F)F)cc2C(F)(F)F)S1 [Compound 51, 5-[1-(2,4-Bis-trifluoromethyl-benzyl)-3-iodo-1H-indazol-5-ylmethylene]-2-[(2-diethylamino-ethyl)-methyl-amino]-thiazol-4-one]",EC50,11 nM
"CN1CCC(N(C)C2=NC(=O)/C(=C/c3ccc4c(cnn4Cc4ccc(Cl)cc4C(F)(F)F)c3)S2)CC1 [Compound 19, 5-[1-(4-Chloro-2-trifluoromethyl-benzyl)-1H-indazol-5-ylmethylene]-2-[methyl-(1-methyl-piperidin-4-yl)-amino]-thiazol-4-one]",EC50,8.1 nM
"CN(C1=NC(=O)/C(=C/c2ccc3c(cnn3Cc3ccc(C(F)(F)F)cc3C(F)(F)F)c2)S1)C1CCNC1 (stereo not shown) [Compound 28, 5-[1-(2,4-Bis-trifluoromethyl-benzyl)-1H-indazol-5-ylmethylene]-2-(methyl-pyrrolidin-3-yl-amino)-thiazol-4-one]",EC50,30 nM
"CN(C1=NC(=O)/C(=C/c2ccc3c(cnn3Cc3ccc(Cl)cc3C(F)(F)F)c2)S1)[C@@H]1CCN(CC(N)=O)C1 [Compound 57, 2-[(3R)-3-({5-[1-(4-Chloro-2-trifluoromethyl-benzyl)-1H-indazol-5-ylmethylene]-4-oxo-4,5-dihydro-thiazol-2-yl}-methyl-amino)-pyrrolidin-1-yl]-acetamide]",EC50,15 nM
"CN(CC(O)CN1CCCC1)C1=NC(=O)/C(=C/c2ccc3c(cnn3Cc3ccc(Cl)cc3C(F)(F)F)c2)S1 (stereo not shown) [Compound 50, 5-[1-(4-Chloro-2-trifluoromethyl-benzyl)-1H-indazol-5-ylmethylene]-2-[(2-hydroxy-3-pyrrolidin-1-yl-propyl)-methyl-amino]-thiazol-4-one]",EC50,23 nM
"COCCN(CCOC)C1=NC(=O)/C(=C/c2ccc3c(cnn3Cc3ccc(OC)cc3C(F)(F)F)c2)S1 [Compound 9, 2-[Bis-(2-methoxy-ethyl)-amino]-5-[1-(4-methoxy-2-trifluoromethyl-benzyl)-1H-indazol-5-ylmethylene]-thiazol-4-one]",EC50,4.1 nM
"CN(C1=NC(=O)/C(=C/c2ccc3c(cnn3Cc3ccc(Cl)cc3C(F)(F)F)c2)S1)[C@@H]1CN[C@H](CO)C1 (stereo in doubt) [Compound 42, 5-[1-(4-Chloro-2-trifluoromethyl-benzyl)-1H-indazol-5-ylmethylene]-2-[(5-hydroxymethyl-pyrrolidin-3-yl)-methyl-amino]-thiazol-4-one]",EC50,24 nM
"CN(CC(O)CO)C1=NC(=O)/C(=C/c2ccc3c(cnn3Cc3ncc(C(F)(F)F)cc3Cl)c2)S1 (stereo not shown) [Compound 11, 5-[1-(3-Chloro-5-trifluoromethyl-pyridin-2-ylmethyl)-1H-indazol-5-ylmethylene]-2-[(2,3-dihydroxy-propyl)-methyl-amino]-thiazol-4-one]",EC50,1600 nM
"CCN(CC)CCN(C)C1=NC(=O)/C(=C/c2ccc3c(cnn3Cc3ccc(Cl)cc3C(F)(F)F)c2)S1 [Compound 32, 5-[1-(4-Chloro-2-trifluoromethyl-benzyl)-1H-indazol-5-ylmethylene]-2-[(2-diethylamino-ethyl)-methyl-amino]-thiazol-4-one]",EC50,15 nM
"CN(CC(O)CO)C1=NC(=O)/C(=C/c2ccc3c(cnn3Cc3ccc(S(C)(=O)=O)cc3C(F)(F)F)c2)S1 (stereo not shown) [Compound 8, 2-[(2,3-Dihydroxy-propyl)-methyl-amino]-5-[1-(4-methanesulfonyl-2-trifluoromethyl-benzyl)-1H-indazol-5-ylmethylene]-thiazol-4-one]",EC50,520 nM
"CN(C1=NC(=O)/C(=C/c2ccc3c(cnn3Cc3ccc(C(F)(F)F)cc3C(F)(F)F)c2)S1)C1CN[C@H](CO)C1 (stereo partly shown) [Compound 43, 5-[1-(2,4-Bis-trifluoromethyl-benzyl)-1H-indazol-5-ylmethylene]-2-[(5-hydroxymethyl-pyrrolidin-3-yl)-methyl-amino]-thiazol-4-one]",EC50,30 nM
"CONC(=O)[C@H]1C[C@H](N(C)C2=NC(=O)/C(=C/c3ccc4c(cnn4Cc4ccc(Cl)cc4C(F)(F)F)c3)S2)CN1 [Compound 60, 4-({5-[1-(4-Chloro-2-trifluoromethyl-benzyl)-1H-indazol-5-ylmethylene]-4-oxo-4,5-dihydro-thiazol-2-yl}-methyl-amino)-pyrrolidine-2-carboxylic acid methoxy-amide]",EC50,25 nM
